Results reported in patent US10295528B2, “Method of screening ATP11C or CDC50A inhibitor” (KYOTO UNIVERSITY, priority 2014, dated 2019).
Each block holds one molecule with its values, some of them ahead of it.

Key:
ATP11C = assay: FasL-induced ATP11C cleavage in W3 cells, Western blotting with anti-mATP11C; assay type: cell-based, mouse; conditions: 1 h FasL, 20 μM QVD-Oph, membrane fractions
Description: FIG. 3D Cleavage of ATP11C by caspase (D). W3 and ATP11C^ED22 were incubated for 1 h with FasL in the presence or absence of 20 μM QVD-Oph. Membrane fractions were analyzed by Western blotting with anti-mATP11C or anti-mFas. Upper and middle panels: the blot with anti-mATP11C, where exposure time is longer in the middle panel.
Cells or membrane fractions were lysed in RIPA buffer ([…] (pH 8.0) containing 1% MP-40, 0.1% SDS, 0.5% sodium deoxycholate, 150 mM NaCl, and a cocktail of protease inhibitors (cOmplete, Mini, EDTA-free, Roche Diagnostics)). After removing insoluble materials by centrifugation, the lysates were mixed […] with 3×SDS sample buffer (200 mM Tris-HCl [pH 6.8], 10% SDS, 25% glycerol, 15% β-mercaptoethanol, and 0.05% bromophenol blue), and incubated at room temperature for 20 min. Proteins cere separated by SDS-PAGE using a 7.5% or 10-20% gradient gel (Bio Graft), and transferred to a PVDF membrane (Millipore). The membranes were probed with mouse anti-GFP mAb, rabbit anti-active caspase-3 mAb, rabbit anti-hATP11C Ab, rabbit anti-α-tubulin mAb, or rat anti-mFas mAb, followed by incubation with HRP-conjugated goat anti-mouse Igs, goat anti-rabbit Igs or rabbit anti-rat Igs (Dako). The peroxidase activity was detected by the Western Lightning-ECL system (PerkinElmer).

ATP11C^GT = assay: Internalization of NBD lipids (flippase activity), flow cytometry; assay type: cell-based, human; conditions: KBM7-derived ATP11C^GT cells, 20 min with NBD-PS with or without vanadate, MFI
Description: FIG. 2D Requirement of ATP11C and CDC50A for flippase activity (D), KBM7, ATP11C^GT, and CDC50A^GT were incubated for 20 min with NBD-PS with or without an ATPase inhibitor vanadate, and analyzed by flow cytometry. MFI was plotted (n=3).
Cells (2×10^6) were incubated with 1.5 μM NBD-PS, NBD-PE, or NBD-PC at 25° C. for 15-20 min in 600 μl of HBSS containing 1 mM MgCl2 and 2.5 mM CaCl2. After incubation, the cells were collected by centrifugation, resuspended in HBSS containing 5 mg/ml fatty-acid-free BSA, and analyzed by a FACSAria II. To determine the scramblase activity, 1.5×10^6 cells were incubated at 25° C. for 4 min with 0.5 μM NBD-PC.

CDC50A^ED29 = assay: In vitro phagocytosis assay: thio-pMac engulfment of pHrodo-labeled cells; assay type: cell-based, mouse; conditions: 2 h incubation, 4 μg/ml MFG-E8 D89E
Description: FIG. 6A Engulfment of PtdSer-exposing viable cells (A). Thio-pMacs were incubated for 2 h with pHrodo-labeled W3-Ildm, CDC50A^ED29, its hCDC50A transformant (CDC50A^ED29-hCDC50A), or W3-D430G-L in the presence or absence of 4 μg/ml of MFG-E8 D89E, and analyzed by FACS.
To prepare thioglycollate-elicited peritoneal macrophages (thio-pMacs), female C57BL/6J mice at 7-12 weeks of age were injected intraperitonealiy with 60 mg of thioglycollate (Sigma-Aldrich), and peritoneal macrophages were collected 4 days later. Phagocytosis was assayed by following the transport of pHrodo-stained prey into macrophage lysosomes (50, 51). In brief, 5×10^5 thio-pMacs were grown overnight in 12-well plates (Corning). Growing or apoptotic cells (2.0×10^7) were washed with PBS and incubated with 40 ng/ml pHrodo for 10 min at room temperature. After stopping the reaction with 2 ml FCS, the cells were washed with IMDM containing 10% FCS, added to the macrophages in the medium containing 1% methyl cellulose (Sigma-Aldrich), spun at 500×g for 4 min at room temperature using a swinging rotor, and incubated at 37° C. The macrophages were detached from the plate by treatment with 0.25% trypsin, stained with APC-conjugated rat anti-mouse Mac1, suspended in 20 mM CHES-NaOH buffer (pH 9.0) containing 150 mM NaCl, 2% PCS, and 200 nM Sytox blue, and analyzed by flow cytometry using the FACSCanto II. […]

Molecule: CC(C)[C@H](NC(=O)c1ccc2ccccc2n1)C(=O)N[C@@H](CC(=O)O)C(=O)COc1c(F)cccc1F [Q-VD-OPh]
FasL-caused shift in ATP11C's mobility (from 120 to 50 kDa) (ATP11C): prevented

incorporation of phospholipids in ATP11C^GT (ATP11C^GT): inhibited
Molecule: [O]=[V]([O-])([O-])[O-] [orthovanadate]

B1: D89E mutant of MFG-E8: D89E mutant of MFG-E8, which masks PtdSer; produced in HEK293T cells (protein, UniProt P21956 23-463, looked up, variant D89E)
Lactadherin: ASGDFCDSSLCLNGGTCLTGQDNDIYCLCPEGFTGLVCNETERGPCSPNPCYNDAKCLVTLDTQRGEIFTEYICQCPVGYSGIHCETETNYYNLDGEYMFTTAVPNTAVPTPAPTPDLSNNLASRCSTQLGMEGGAIADSQISASSVYMGFMGLQRWGPELARLYRTGIVNAWTASNYDSKPWIQVNLLRKMRVSGVMTQGASRAGRAEYLKTFKVAYSLDGRKFEFIQDESGGDKEFLGNLDNNSLKVNMFNPTLEAQYIKLYPVSCHRGCTLRFELLGCELHGCSEPLGLKNNTIPDSQMSASSSYKTWNLRAFGWYPHLGRLDNQGKINAWTAQSNSAKEWLQVDLGTQRQVTGIITQGARDFGHIQYVASYKVAHSDDGVQWTVYEEQGSSKVFQGNLDNNSHKKNIFEKPFMARYVRVLPVSWHNRITLRLELLGC
engulfment of CDC50A^ED29 by thio-pMacs (CDC50A^ED29): inhibited
